# Legend:
# [1] = test system: human iPS cells (Ff-I01 strain); assay: Immunostaining of aggregate sections for retinal tissue marker Chx10; type: cell-based; settings: StemFit AK03N, day 19
# Description: (§1) Cell aggregates on day 16 after the start of suspension culturing were fixed with 4% para-formaldehyde to prepare frozen sections. These frozen sections were immunostained for Chx10 (anti-Chx10 antibody, Exalpha, sheep), which is one of the retinal tissue markers. These immunostained sections were observed under a fluorescence microscope.
# Cell aggregates on day 16 after the start of suspension culturing were fixed with 4% para-formaldehyde to prepare frozen sections. These frozen sections were immunostained for Chx10 (anti-Chx10 antibody, Exalpha, sheep), which is one of the retinal tissue markers, and observed under a fluorescence microscope. […] In addition, the proportion of Chx10-positive cells in the total cells is about 80% under conditions with the addition of BMP4 twice to maintain the final concentration of 5 nM (FIG. 23, D)
# The cell aggregates on day 19 after the start of suspension culturing were fixed with 4% para-formaldehyde to prepare frozen sections. These frozen sections were immunostained for Chx10 (anti-Chx10 antibody, Exalpha, sheep), which is one of the retinal tissue markers. These immunostained sections were observed under an inverted fluorescence microscope. As a result, the proportion of Chx10-positive cells in the total cells is about 70% under conditions with the addition of BMP4 twice to maintain the final concentration of 1.5 nM ([…]). In addition, the proportion of Chx10-positive cells in the total cells is about 90% under conditions with the addition of BMP4 twice to maintain the final concentration of 5 nM (FIG. 34, D).
# as §1, with “The thus-prepared cell” for “Cell”, “19” for “16”, “markers, and” for “markers. These immunostained sections were”
# [2] = test system: human iPS cells (1231A3 strain); assay: Form of cell aggregate in suspension culturing, bright field observation (good / medium / bad form); type: cell-based; settings: for cell aggregates with a bad form (not spherical, collapsed) / cell aggregates with a good form (spherical, smooth surface and dense inside) / cell aggregates with a medium form (spherical, forming cyst): day 6
# Description: (§2) The above human iPS cells were treated with the cell dispersion solution by using TrypLE Select (Life Technologies), further dispersed into single cells by pipetting operation, and the above human iPS cells dispersed into single cells were suspended in 100 μl of a serum-free medium at 1.2×10^4 cells per well of a non-cell-adhesive 96-well culture plate (PrimeSurface 96V-bottom plate, manufactured by SUMITOMO BAKELITE), and subjected to suspension culturing at 37° C., 5% CO2. As the serum-free medium (gfCDM+KSR) therefor, a serum-free medium which is a 1:1 mixture of F-12 medium and IMDM medium supplemented with 10% KSR, 450 μM 1-monothioglycerol, and 1× Chemically defined lipid concentrate was used. At the time of the start of suspension culturing (day 0 after the start of suspension culturing, start of step 2), Y27632 (final concentration 20 μM) was added to the above serum-free medium. By day 2 after the start of suspension culturing, a cell aggregate was formed under both preconditioning conditions and conditions without preconditioning (step 2 completed, step 3 start). On day 3 after the start of suspension culturing, a serum-free medium (50 μl) free of Y27632 was added.
# The thus-prepared cells on day 6 after the start of suspension culturing were subjected to bright field observation under an inverted microscope (KEYENCE) (FIG. 3).
# Furthermore, bright field observation of the form of the cell aggregate on day 6 after the start of suspension culturing was performed under an inverted microscope, and the form was categorized into good form (FIG. 3C black bar, spherical, smooth surface and dense inside), medium form (FIG. 3 gray bar, spherical, forming cyst), and bad form (FIG. 3C white bar, not spherical, collapsed) and quantified.
# as §2, with “μM 1-monothioglycerol, 1× Chemically” for “μM 1-monothioglycerol, and 1× Chemically”, “20 μM) and TGFβR inhibitor (SB431542, 5 μM) were added to” for “20 μM) was added to”, “of Y27632 and supplemented with a TGFβR inhibitor (SB431542, 5 μM) was added.” for “of Y27632 was added.”
# The form of the thus-prepared cell aggregates on day 6 after the start of suspension culturing was observed according to the method described in Example 3.
# The above human iPS cells were treated with the cell dispersion solution by using TrypLE Select (Life Technologies), further dispersed into single cells by pipetting operation, and the above human iPS cells dispersed into single cells were suspended in 100 μl of a serum-free medium at 1.2×10^4 cells per well of a non-cell-adhesive 96-well culture plate (PrimeSurface 96V-bottom plate, manufactured by SUMITOMO BAKELITE), and subjected to suspension culturing at 37° C., 5% CO2. As the serum-free medium (gfCDM+KSR) therefor, a serum-free medium which is a 1:1 mixture of F-12 medium and IMDM medium supplemented with 10% KSR, 450 μM 1-monothioglycerol and 1× Chemically defined lipid concentrate was used. […]
# [3] = SB431542 5 μM in step 1 and in step 2 and step 3
# [4] = no preconditioning in step 1, SB431542 5 μM added in step 2 and step 3
Compound,"proportion of Chx10-positive cells in the total cells ([1]; SAG 300 nM for 48, 72 or 96 hr in step 1, SAG 500 nM in step 2, BMP4 1.5 nM)","proportion of Chx10-positive cells in the total cells ([1]; SAG 300 nM for 24 hr in step 1, SAG 500 nM in step 2, BMP4 1.5 nM)","shape of cell aggregate compared with no preconditioning ([2]; SB431542 5 μM 1 day in step 1, day 6 of suspension culturing)","cell aggregates with a bad form (not spherical, collapsed) [2, 3]","cell aggregates with a good form (spherical, smooth surface and dense inside) [2, 3]","cell aggregates with a medium form (spherical, forming cyst) [2, 3]","cell aggregates with a bad form (not spherical, collapsed) ([2]; SB431542 5 μM in step 1 only)","cell aggregates with a good form (spherical, smooth surface and dense inside) ([2]; SB431542 5 μM in step 1 only)","cell aggregates with a medium form (spherical, forming cyst) ([2]; SB431542 5 μM in step 1 only)","cell aggregates with a bad form (not spherical, collapsed) [2, 4]","cell aggregates with a good form (spherical, smooth surface and dense inside) [2, 4]","cell aggregates with a medium form (spherical, forming cyst) [2, 4]"
CNC1CCC(N(Cc2cccc(-c3ccncc3)c2)C(=O)c2sc3ccccc3c2Cl)CC1 (stereo not drawn) [SAG],about 80%,about 10%,,,,,,,,,,
"NC(=O)c1ccc(-c2nc(-c3ccc4c(c3)OCO4)c(-c3ccccn3)[nH]2)cc1 [SB431542, 4-(5-benzol[1,3]dioxol-5-yl-4-pyridin-2-yl-1H-imidazol-2-yl)-benzamide]",,,better shape,about 0%,about 100%,about 0%,about 0%,about 100%,about 0%,about 30%,about 10%,about 60%
